According to ChEMBL document CHEMBL1136897, “Predictive models of Cannabinoid-1 receptor antagonists derived from diverse classes” (Bioorg Med Chem Lett, 2009):

These molecules were tested against Cannabinoid receptor 1 (Homo sapiens, UniProt P21554).
Format: functional

Chain of Cannabinoid receptor 1 (P21554 whole entry): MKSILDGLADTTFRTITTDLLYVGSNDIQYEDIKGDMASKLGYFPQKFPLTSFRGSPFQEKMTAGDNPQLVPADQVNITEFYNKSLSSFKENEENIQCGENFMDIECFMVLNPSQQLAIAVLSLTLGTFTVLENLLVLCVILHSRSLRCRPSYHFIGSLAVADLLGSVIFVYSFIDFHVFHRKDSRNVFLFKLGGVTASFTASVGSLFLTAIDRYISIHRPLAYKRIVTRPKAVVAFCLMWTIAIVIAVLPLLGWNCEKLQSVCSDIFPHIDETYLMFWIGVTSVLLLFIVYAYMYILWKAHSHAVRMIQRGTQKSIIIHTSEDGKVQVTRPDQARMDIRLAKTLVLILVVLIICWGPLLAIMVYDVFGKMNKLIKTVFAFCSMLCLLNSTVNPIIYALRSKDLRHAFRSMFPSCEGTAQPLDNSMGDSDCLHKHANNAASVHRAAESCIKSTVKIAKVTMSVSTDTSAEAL

SMILES	IC50
CC(=O)Nc1cc(=O)n(C)c2nc(-c3ccc(Cl)cc3Cl)c(-c3ccc(Cl)cc3)cc12	0.112 µM
CC(=O)Nc1c(C#N)c(=O)n(C)c2nc(-c3ccc(Cl)cc3Cl)c(-c3ccc(Cl)cc3)cc12	0.0355 µM
CC(NC(=O)C(C)(C)Oc1cccc(Cl)c1)C(Cc1ccc(Cl)cc1)c1ccccc1 (stereo not drawn)	0.00151 µM
CC(C)NC(=O)N1CCN(C(c2ccc(Cl)cc2)c2ccccc2C(F)(F)F)CC1 (stereo not drawn)	6.61 µM
CC(NS(=O)(=O)Cc1ccccc1)C(Cc1ccc(Cl)cc1)c1cccc(C#N)c1 (stereo not drawn)	0.0209 µM
CC(NS(=O)(=O)C(C)(C)C)C(Cc1ccc(Cl)cc1)c1cccc(C#N)c1 (stereo not drawn)	1.7 µM
CC(NS(C)(=O)=O)C(Cc1ccc(Cl)cc1)c1cccc(C#N)c1 (stereo not drawn)	2.04 µM
CC(C)NC(=O)N1CCN(C(c2ccc(Cl)cc2)c2ccccc2Cl)CC1 (stereo not drawn)	0.398 µM
Cc1ccccc1C(c1ccc(Cl)cc1)N1CCN(C(=O)NC(C)C)CC1 (stereo not drawn)	2.19 µM
CC(NC(=O)C(C)(C)Oc1cc(F)cc(F)c1)C(Cc1ccc(Cl)cc1)c1ccccc1 (stereo not drawn)	0.00112 µM
CC(C)NC(=O)N1CCN(C(c2ccc(Br)cc2)c2ccccc2Cl)CC1 (stereo not drawn)	0.776 µM
O=C(NCC1CCC1)N1CCN(C(c2ccc(Cl)cc2)c2ccc(Cl)cc2)CC1	3.47 µM
CC(NC(=O)C(C)(C)Oc1ccc(Cl)cn1)C(Cc1ccc(Cl)cc1)c1ccccc1 (stereo not drawn)	0.00132 µM
